This note sets out measurements from patent US9597407B2, “Targeted antimicrobial moieties” (C3 Jian, Inc., priority 2009, dated 2017).

For the assay, the system named is microorganisms. Nature of the assay: Morphology, biofilm and growth disruption by peptides (Table 5). In kind it is cell-based. Also on record: key: A: Peptide aggregates; B: Less hyphal formation; Clumps; Diffuse clumps and small polyps; F: Diffuse growth; H: Thin; I: Growth inhibition; Microcolony formation; Rippled; Small polyps; Thick; W: Halo formation on top, microlonies on bottom. An excerpt: In certain embodiments peptides that induce alterations in phenotype or other biological activities can also be used as antimicrobial effector moieties.

Ends that are not written are not given here.

For the substance “PF-455 (MARNDDDIKKIKGTLGQSPEVYGERKLPYT; Peptide with targeting and/or antimicrobial activity)”, the “Organism, effect (morphology, biofilm and growth disruption)” value (S. pneumoniae) is recorded as “S. pneumoniae (A)”.

Turning to “PF-468 (EDNKDKKDKKDK; Peptide with targeting and/or antimicrobial activity)”, the “Organism, effect (morphology, biofilm and growth disruption)” value (S. pneumoniae) is “S. pneumoniae (H)”.

For the substance “PF-485 (KNSMSRSIALID; Peptide with targeting and/or antimicrobial activity)”, the “Organism, effect (morphology, biofilm and growth disruption)” value (S. pneumoniae) is “S. pneumoniae (A)”.

As to “PF-516 (ASKQASKQASKQASKQ; Peptide with targeting and/or antimicrobial activity)”, the “Organism, effect (morphology, biofilm and growth disruption)” value (S. pneumoniae) is recorded as “S. pneumoniae (H)”.

For the substance “PF-532 (KFIYKYKLSFIIYKILIQTLTMELNK; Peptide with targeting and/or antimicrobial activity)”, the “Organism, effect (morphology, biofilm and growth disruption)” value runs as follows: (E. coli) “E. coli (C)”; (E. faecalis) “E. faecalis (C)”; (MRSA) “MRSA (C)”; (S. pneumoniae) “S. pneumoniae (C)”.

Take PF-534 (KYFHLFYHNIIHYSKQHLSLKVDFKN-NH2): the “Organism, effect (morphology, biofilm and growth disruption)” value is reported as “E. coli (R)” (E. coli); “E. faecalis (C)” (E. faecalis); “MRSA (C)” (MRSA); “S. epidermidis (C)” (S. epidermidis); “S. pneumoniae (R)” (S. pneumoniae).

With “PF-535 (NIKTRKRALKIIKQHQRSK; Peptide with targeting and/or antimicrobial activity)”, the “Organism, effect (morphology, biofilm and growth disruption)” value runs as follows: (P. aeruginosa) “P. aeruginosa (H)”; (S. pneumoniae) “S. pneumoniae (H)”.

For the substance “PF-536 (MEPIPHIMIIANQIGIIIEKA; Peptide with targeting and/or antimicrobial activity)”, the “Organism, effect (morphology, biofilm and growth disruption)” value runs as follows: (E. coli) “E. coli (R)”; (E. faecalis) “E. faecalis (C)”; (MRSA) “MRSA (C)”; (P. aeruginosa) “P. aeruginosa (H)”; (S. epidermidis) “S. epidermidis (C)”; (S. pneumoniae) “S. pneumoniae (M)”.

On to “PF-541 (RRNLNSPNIKTRKRALKIIKQHQRSK; Peptide with targeting and/or antimicrobial activity)”, for which the “Organism, effect (morphology, biofilm and growth disruption)” value is “E. coli (H)” (E. coli) and “S. pneumoniae (H)” (S. pneumoniae).

For the substance “PF-561 (ESLEADVQAELDTEAAKYPALPASF; Peptide with targeting and/or antimicrobial activity)”, the “Organism, effect (morphology, biofilm and growth disruption)” value was “B. subtilis (D)” (B. subtilis) and “MRSA (M)” (MRSA).

Consider “PF-565 (RAEAEAQRQAEADAKRKAEEAARL; Peptide with targeting and/or antimicrobial activity)”, for which the “Organism, effect (morphology, biofilm and growth disruption)” value reads like this: (B. subtilis) “B. subtilis (D)”; (MRSA) “MRSA (C)”.

For “PF-571 (SDLLYYPNENREDSPAGVVKEVKE; Peptide with targeting and/or antimicrobial activity)”, the “Organism, effect (morphology, biofilm and growth disruption)” value (B. subtilis) was “B. subtilis (D)”.

Take “PF-574 (LVKSGKLESPYEHSEHLTLSQEKGLE; Peptide with targeting and/or antimicrobial activity)”: the “Organism, effect (morphology, biofilm and growth disruption)” value (B. subtilis) is “B. subtilis (D)”.

For the substance “PF-581 (WTARARR; Peptide with targeting and/or antimicrobial activity)”, the “Organism, effect (morphology, biofilm and growth disruption)” value is, setting by setting: (C. jejuni) “C. jejuni (A)”; (E. faecalis) “E. faecalis (A)”; (MRSA) “MRSA (A)”; (S. pneumoniae) “S. pneumoniae (A)”.

As to “PF-582 (NLKTIEKECPFCNNKMDIKLKD; Peptide with targeting and/or antimicrobial activity)”, the “Organism, effect (morphology, biofilm and growth disruption)” value (E. faecalis) was “E. faecalis (A)”.

As for “PF-586 (FFNQANYFFKEF; Peptide with targeting and/or antimicrobial activity)”, the “Organism, effect (morphology, biofilm and growth disruption)” value runs as follows: (C. jejuni) “C. jejuni (D)”; (E. coli) “E. coli (C)”; (E. faecalis) “E. faecalis (D)”; (MRSA) “MRSA (D)”; (S. epidermidis) “S. epidermidis (C)”; (S. pneumoniae) “S. pneumoniae (D)”.

Regarding “PF-592 (IMKNYKYFKLFIVKYALF; Peptide with targeting and/or antimicrobial activity)”, the “Organism, effect (morphology, biofilm and growth disruption)” value was “C. jejuni (S)” (C. jejuni); “E. coli (C)” (E. coli); “E. faecalis (D)” (E. faecalis); “MRSA (D)” (MRSA); “S. epidermidis (M)” (S. epidermidis); “S. pneumoniae (D)” (S. pneumoniae).

As for “PF-595 (LQNKIYELLYIKERSKLCS; Peptide with targeting and/or antimicrobial activity)”, the “Organism, effect (morphology, biofilm and growth disruption)” value (C. jejuni) was “C. jejuni (D)”; the “Organism, effect (morphology, biofilm and growth disruption)” value (E. coli) is listed as “E. coli (C)”; the “Organism, effect (morphology, biofilm and growth disruption)” value (E. faecalis) is “E. faecalis (D)”; the “Organism, effect (morphology, biofilm and growth disruption)” value (MRSA) is “MRSA (D)”; the “Organism, effect (morphology, biofilm and growth disruption)” value (S. epidermidis) is listed as “S. epidermidis (C)”; the “Organism, effect (morphology, biofilm and growth disruption)” value (S. pneumoniae) was “S. pneumoniae (R)”.

In the case of “PF-605 (HYRWNTQWWKY; Peptide with targeting and/or antimicrobial activity)”, the “Organism, effect (morphology, biofilm and growth disruption)” value is, setting by setting: (C. albicans) “C. albicans (B)”; (C. jejuni) “C. jejuni (R)”; (E. coli) “E. coli (C)”; (E. faecalis) “E. faecalis (R)”; (MRSA) “MRSA (C)”; (P. aeruginosa) “P. aeruginosa (A)”. Further, the “Organism, effect (morphology, biofilm and growth disruption)” value is reported as “S. epidermidis (R)” (S. epidermidis) and “S. pneumoniae (D)” (S. pneumoniae).

Consider “PF-610 (VFLKLKTSKIDLASIIFYP; Peptide with targeting and/or antimicrobial activity)”, for which the “Organism, effect (morphology, biofilm and growth disruption)” value is recorded as “C. jejuni (D)” (C. jejuni); “E. coli (C)” (E. coli); “E. faecalis (D)” (E. faecalis); “MRSA (D)” (MRSA); “S. epidermidis (C)” (S. epidermidis); “S. pneumoniae (D)” (S. pneumoniae).
